Tests used:
[1] = target: T1, Tie2 intracellular domain protein (Homo sapiens, UniProt Q02763); assay: TIE2 kinase inhibitory activity (AlphaScreen); assay type: biochemical
T1 construct: 50 ng/mL of Tie2 intracellular domain protein (Millipore); purchased Millipore

[2] = test system: Human gastric cancer cell line MKN-45; assay: Human gastric cancer cell line MKN-45 growth inhibitory test; assay type: cell-based; settings: MKN-45, 72 h, culture for 3 days; for inhibition at 1 µM: 1 μM test substance, read-out: inhibitory rate (%) at 1 μM; for IC50: read-out: IC50 value
How it was run: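 MKN-45 cells plated at 3000/well in RPMI1640 with 0.3% FBS, then exposed to test substance for 3 days at 37 °C. Viability read by CCK-8 absorbance at 450 nm; IC50 from variable-slope sigmoidal fit, with DMSO as 100% growth and 10 µM reference c-Met inhibitor as 0% growth.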

[3] = target: T2, c-Met intracellular domain protein (Homo sapiens, UniProt P08581); assay: Hepatocyte growth factor receptor (c-Met) kinase inhibitory activity (AlphaScreen); assay type: biochemical; settings: for inhibition at 1 µM: 1 μM test compound, read-out: inhibitory rate (%) at 1 μM
T2 construct: 2.5 ng/ml of c-Met intracellular domain protein (Millipore); purchased Millipore
T2 sequence (P08581 956-1390 limits assumed): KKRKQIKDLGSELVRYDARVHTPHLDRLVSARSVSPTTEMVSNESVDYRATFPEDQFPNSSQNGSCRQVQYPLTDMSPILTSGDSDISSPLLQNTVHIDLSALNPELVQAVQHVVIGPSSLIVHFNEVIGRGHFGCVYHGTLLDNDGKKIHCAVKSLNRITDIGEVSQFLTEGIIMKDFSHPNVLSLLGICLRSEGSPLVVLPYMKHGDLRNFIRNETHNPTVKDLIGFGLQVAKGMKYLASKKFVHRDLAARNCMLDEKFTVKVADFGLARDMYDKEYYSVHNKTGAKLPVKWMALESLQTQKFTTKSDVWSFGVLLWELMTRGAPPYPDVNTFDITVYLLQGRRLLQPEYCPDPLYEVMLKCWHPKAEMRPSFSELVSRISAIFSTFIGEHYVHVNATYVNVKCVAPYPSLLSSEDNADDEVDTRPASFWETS
Method: A test compound dissolved in dimethyl sulfoxide (DMSO) was diluted with a buffer (50 mM Tris-HCl (pH 7.5), 5 mM MgCl2, 5 mM MnCl2, 2 mM dithiothreitol, 0.01% Tween-20). To this compound solution (5 μL) was added a buffer (10 μL) containing 2.5 ng/ml of c-Met intracellular domain protein (Millipore) and 250 ng/mL of biotin labeled polypeptide biotinyl-poly-Glu:Tyr (4:1) (CIS bio International). […] The reaction solution was allowed to stand at 25° C. for 16 hrs, and the wells were counted using a plate reader (Fusion™ (PerkinElmer)). The kinase inhibitory rate (%) of the test compound was calculated by the following formula: Inhibitory rate (%)=(1−(count of test compound−blank)÷(control−blank))×100
The count of the solution reacted without addition of the compound was used as a “control”, and the count of the solution without the compound and ATP was used as a “blank”.

[4] = test system: Human blood cell cancer cell line MV-4-11; assay: Human blood cell cancer cell line MV-4-11 growth inhibitory test; assay type: cell-based; settings: MV4-11, 72 h, culture for 3 days; for inhibition at 1 µM: 1 μM test substance, read-out: inhibitory rate (%) at 1 μM

T1 sequence (Q02763 770-1124 limits assumed): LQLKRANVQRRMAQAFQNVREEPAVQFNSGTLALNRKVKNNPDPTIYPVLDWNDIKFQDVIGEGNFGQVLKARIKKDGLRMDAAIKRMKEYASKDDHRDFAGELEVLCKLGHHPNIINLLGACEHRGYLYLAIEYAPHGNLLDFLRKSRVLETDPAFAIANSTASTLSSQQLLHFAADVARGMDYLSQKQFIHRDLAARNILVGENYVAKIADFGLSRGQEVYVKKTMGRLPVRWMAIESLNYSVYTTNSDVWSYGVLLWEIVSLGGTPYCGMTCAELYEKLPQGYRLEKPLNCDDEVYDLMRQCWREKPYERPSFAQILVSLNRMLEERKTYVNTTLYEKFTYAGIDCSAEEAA

Row | IC50 [1] [nM] | IC50 [2] [nM] | IC50 [3] [nM] | inhibition at 1 µM [3] [%] | IC50 [4] [nM] | Structure (SMILES) | inhibition at 1 µM [2] [%] | inhibition at 1 µM [4] [%]
1 | ≤ 1000 | ≤ 1000 | ≤ 1000 | ≥ 80 | ≤ 1000 | Cc1ccc(C(=O)Nc2ccc(Oc3ccc4nc(NC(=O)C5CC5)cn4c3)c(F)c2)[n+]([O-])c1-c1ccc(F)cc1 [Example 29, N-[4-({2-[(cyclopropylcarbonyl)amino]imidazo[1,2-a]pyridin-6-yl}oxy)-3-fluorophenyl]-6-(4-fluorophenyl)-5-methylpyridine-2-carboxamide 1-oxide] | ≥ 80 | ≥ 90
2 | ≤ 1000 | ≤ 1000 | ≤ 1000 | ≥ 80 | ≤ 1000 | Cc1ccc(C(=O)Nc2ccc(Oc3ccc4nc(NC(=O)C5CC5)cn4c3)cn2)[n+]([O-])c1-c1ccc(F)cc1 [Example 61, N-[5-({2-[(cyclopropylcarbonyl)amino]imidazo[1,2-a]pyridin-6-yl}oxy)pyridin-2-yl]-6-(4-fluorophenyl)-5-methylpyridine-2-carboxamide 1-oxide] | ≥ 80 | ≥ 90
3 | ≤ 1000 | ≤ 1000 | ≤ 1000 | ≥ 80 | ≤ 1000 | Cc1ccc(C(=O)Nc2ccc(Oc3ccc4nc(NC(=O)C5CC5)cn4c3)c(F)c2)c(=O)n1-c1cccc(F)c1 [Example 75, N-[4-({2-[(cyclopropylcarbonyl)amino]imidazo[1,2-a]pyridin-6-yl}oxy)-3-fluorophenyl]-1-(3-fluorophenyl)-6-methyl-2-oxo-1,2-dihydropyridine-3-carboxamide] | ≥ 80 | ≥ 90
4 | ≤ 1000 | ≤ 1000 | ≤ 1000 | ≥ 80 | ≤ 1000 | Cc1c(C(=O)Nc2ccc(Oc3ccc4nc(NC(=O)C5CC5)cn4c3)c(F)c2)c(=O)n(-c2ccc(F)cc2)n1C [Example 77, N-[4-({2-[(cyclopropylcarbonyl)amino]imidazo[1,2-a]pyridin-6-yl}oxy)-3-fluorophenyl]-2-(4-fluorophenyl)-1,5-dimethyl-3-oxo-2,3-dihydro-1H-pyrazole-4-carboxamide] | ≥ 80 | ≥ 90
5 | ≤ 1000 | ≤ 1000 | ≤ 1000 | ≥ 80 | ≤ 1000 | Cc1ccc(C(=O)Nc2ccc(Oc3ccc4nc(NC(=O)C5CC5)cn4c3)c(F)c2)[n+]([O-])c1-c1cccc(F)c1 [Example 93, N-[4-({2-[(cyclopropylcarbonyl)amino]imidazo[1,2-a]pyridin-6-yl}oxy)-3-fluorophenyl]-6-(3-fluorophenyl)-5-methylpyridine-2-carboxamide 1-oxide] | ≥ 80 | ≥ 90
6 | ≤ 1000 | ≤ 1000 | ≤ 1000 | ≥ 80 | ≤ 1000 | Cc1ccc(C(=O)Nc2ccc(Oc3ccc4nc(NC(=O)C5CC5)cn4c3)c(F)c2)c(=O)n1-c1ccc(F)c(F)c1 [Example 45, N-[4-({2-[(cyclopropylcarbonyl)amino]imidazo[1,2-a]pyridin-6-yl}oxy)-3-fluorophenyl]-1-(3,4-difluorophenyl)-6-methyl-2-oxo-1,2-dihydropyridine-3-carboxamide] | ≥ 80 | ≥ 90
7 | ≤ 1000 | ≤ 1000 | ≤ 1000 | ≥ 80 | ≤ 1000 | O=C(Nc1cn2cc(Oc3ccc(NC(=O)C4(C(=O)Nc5ccc(F)cc5)CC4)cc3F)ccc2n1)C1CC1 [Example 11, N-[4-({2-[(cyclopropylcarbonyl)amino]imidazo[1,2-a]pyridin-6-yl}oxy)-3-fluorophenyl]-N′-(4-fluorophenyl)cyclopropane-1,1-dicarboxamide] | ≥ 80 | ≥ 90
8 | ≤ 1000 | ≤ 1000 | ≤ 1000 | ≥ 80 | ≤ 1000 | Cc1cc(C(=O)Nc2ccc(Oc3ccc4nc(NC(=O)C5CC5)cn4c3)c(F)c2)c(=O)n(-c2ccc(F)cc2)c1C [Example 70, N-[4-({2-[(cyclopropylcarbonyl)amino]imidazo[1,2-a]pyridin-6-yl}oxy)-3-fluorophenyl]-1-(4-fluorophenyl)-5,6-dimethyl-2-oxo-1,2-dihydropyridine-3-carboxamide] | ≥ 80 | ≥ 90
9 | ≤ 1000 | ≤ 1000 | ≤ 1000 | ≥ 80 | ≤ 1000 | O=C(Nc1cn2cc(Oc3ccc(NC(=O)C4(C(=O)Nc5ccccc5)CC4)cc3F)ccc2n1)C1CC1 [Example 14, N-[4-({2-[(cyclopropylcarbonyl)amino]imidazo[1,2-a]pyridin-6-yl}oxy)-3-fluorophenyl]-N′-phenylcyclopropane-1,1-dicarboxamide] | ≥ 80 | ≥ 90
10 | ≤ 1000 | ≤ 1000 | ≤ 1000 | ≥ 80 | ≤ 1000 | Cc1ccc(C(=O)Nc2ccc(Oc3ccc4nc(NC(=O)C5CC5)cn4c3)cc2F)[n+]([O-])c1-c1ccc(F)cc1 [Example 84, N-[4-({2-[(cyclopropylcarbonyl)amino]imidazo[1,2-a]pyridin-6-yl}oxy)-2-fluorophenyl]-6-(4-fluorophenyl)-5-methylpyridine-2-carboxamide 1-oxide] | ≥ 80 | ≥ 90
11 | ≤ 1000 | ≤ 1000 | ≤ 1000 | ≥ 80 | ≤ 1000 | Cc1ccc(C(=O)Nc2ccc(Oc3ccc4nc(NC(=O)C5CC5)cn4c3)cc2)c(=O)n1-c1ccc(F)cc1 [Example 28, N-[4-({2-[(cyclopropylcarbonyl)amino]imidazo[1,2-a]pyridin-6-yl}oxy)phenyl]-1-(4-fluorophenyl)-6-methyl-2-oxo-1,2-dihydropyridine-3-carboxamide] | ≥ 80 | ≥ 90
12 | ≤ 1000 | ≤ 1000 | ≤ 1000 | ≥ 80 | ≤ 1000 | Cc1ccc(C(=O)Nc2ccc(Oc3ccc4nc(NC(=O)C5CC5)cn4c3)cc2)[n+]([O-])c1-c1ccc(F)cc1 [Example 72, N-[4-({2-[(cyclopropylcarbonyl)amino]imidazo[1,2-a]pyridin-6-yl}oxy)phenyl]-6-(4-fluorophenyl)-5-methylpyridine-2-carboxamide 1-oxide] | ≥ 80 | ≥ 90
13 | ≤ 1000 | ≤ 1000 | ≤ 1000 | ≥ 80 | ≤ 1000 | O=C(Nc1nc2ccc(Oc3ccc(NC(=O)C4(C(=O)Nc5ccccc5)CC4)cc3F)cc2s1)C1CC1 [Example 18, N-[4-({2-[(cyclopropylcarbonyl)amino]-1,3-benzothiazol-6-yl}oxy)-3-fluorophenyl]-N′-phenylcyclopropane-1,1-dicarboxamide] | ≥ 80 | ≥ 90

Reference: patent US8445509B2, “Fused heterocyclic derivatives and use thereof” (Takeda Pharmaceutical Company Limited, priority 2008, dated 2013)
